Key:
Type in all cases: in vivo
Details in all cases: Glufosinate 3000 ml/ha, Triacontanol 500 ml/ha
[1] = tested on: CYPRO (Cyperus rotundus); assay: Field trial, weed control in papaya orchard, CYPRO
Description: (§1) Field trials were carried out to test the synergy of the combination Glufosinate and Triacontanol. The field trials were carried out at Murari, A.P. The percentage efficacy was calculated after 15, 25 and 30 days of applications. The application was in the open space among the plants in a Papaya orchard and the results are recorded in the table below:—
(§2) TRTPO—Trianthema portulacastrum, COMBE—Commelina benghalensis, AMASP—Amaranthus spinosus, PTNHY—Parthenium hysterophorus, 1CRGG—Corchorus, DIMRE—Dinebra retroflexa, CYNDH—Cynodon dactylon, CYPRO—Cyperus rotundus, EPHHL—Euphorbia heterophylla

[2] = tested on: EPHHL (Euphorbia heterophylla); assay: Field trial, weed control in papaya orchard, EPHHL
Description: as §1, §2

[3] = tested on: PANRP (Brachiaria reptans); assay: Field trial, weed control in papaya orchard, PANRP
Description: as §1

[4] = tested on: PTNHY (Parthenium hysterophorus); assay: Field trial, weed control in papaya orchard, PTNHY
Description: as §1, §2

[5] = tested on: AMASP (Amaranthus spinosus); assay: Field trial, weed control in papaya orchard, AMASP
Description: as §1, §2

[6] = tested on: COMBE (Commelina benghalensis); assay: Field trial, weed control in papaya orchard, COMBE
Description: as §1, §2

[7] = tested on: 1CRGG (Corchorus); assay: Field trial, weed control in papaya orchard, 1CRGG
Description: as §1, §2

[8] = tested on: TRTPO (Trianthema portulacastrum); assay: Field trial, weed control in papaya orchard, TRTPO
Description: as §1, §2

[9] = tested on: CYNDH (Cynodon dactylon); assay: Field trial, weed control in papaya orchard, CYNDH
Description: as §1, §2

[10] = tested on: DIMRE (Dinebra retroflexa); assay: Field trial, weed control in papaya orchard, DIMRE
Description: as §1, §2

CP(=O)(O)CCC(N)C(=O)O (centres unmarked) [Glufosinate]
% Weed control at 30 DAA CYPRO [1]: 11%
% Weed control at 30 DAA EPHHL [2]: 80%
% Weed control at 15 DAA ([3]; 15 DAA): 85%
% Weed control at 25 DAA ([3]; 25 DAA): 65%
% Weed control at 30 DAA PTNHY [4]: 96%
% Weed control at 30 DAA AMASP [5]: 73%
% Weed control at 30 DAA COMBE [6]: 47%
% Weed control at 30 DAA 1CRGG [7]: 69%
% Weed control at 30 DAA TRTPO [8]: 81%
% Weed control at 30 DAA CYNDH [9]: 54%
% Weed control at 30 DAA DIMRE [10]: 62%

Reference: patent publication US12702131B2, “Synergistic agrochemical combination” (UPL LIMITED, priority 2020, dated 2026)
